In US8835617B2, “Polynucleotides encoding a human TRIM-Cyp fusion polypeptide, compositions thereof, and methods of using same” (priority 2008, dated 2014):
Where “and” joins values, the source holds several entries; their conditions need not be identical. Equal values may be shown once. Read-outs that look alike come from different tables or passages of the source. Marks after values point to notes of the source that are not given here.

Legend:
HIV-1 [1] = settings: U937, CEM-SS, SUP-T1, H9, HUH-7, CRFK, 293T
Source text: Since the objective was to engineer a fully human HIV-1 restriction factor, hCypA was the fused at 10 different positions along the length of hT5α (FIG. 44A).

HIV-1NL4-3 [2] = experiment: hCD4+-Rag2-/-γc-/- mice infected with HIV-1 four to five days after adoptive transfer; format: in vivo
Source text: Age-matched, 6-10 week-old Rag2^−/−γc^−/− mice were conditioned with clodronate and sublethal irradiation (van Rijn et al., 2003), and injected intraperitoneally with 2.5×10^6 transduced CD4^+ T cells (FIG. 68A,B).
(§1) Rag2^−/−γc^−/− mice on a BALB/c background (provided by M. Ito; Central Institute for Experimental Animals, Kawasaki, Japan) were bred and maintained under specific pathogen-free conditions in accordance with the guidelines of the animal facility at the Institute for Research in Biomedicine. CL2 MBP (clodronate) was from Roche Diagnostics (Mannheim, Germany). Preparation of liposomes containing CL2 MBP was done as described previously (Van Rooijen and Sanders, 1994). 6-10 week-old mice received 100 ul of clodronate liposomes intraperitoneally (i.p.) 24 hours prior to irradiation using a single sublethal dose of 4.0 Gray (Gy) from a Cesium 137 source (Biobeam 8000, STS GmbH, Braunschweig, Germany) at 3.75 Gy/min. […] CD4^+ T cell engraftment and maintenance in mice was measured by flow cytometry. To obtain peripheral blood cells and plasma, mice were bled from the retro-orbital venous sinus under anesthesia and red blood cells were lysed. When sacrificed, single cell suspensions from organs were prepared. For FACS analysis monoclonal antibodies against the following antigens were used: CD3 (UCHT1), CD4 (13B8.2), CD8 (B9.11), p24 (clone KC57) (all Immunotech/Beckman Coulter, Marseille, France), CD45 (HI30) (Caltag, Burlingame, Calif.). Intracellular staining for p24 was performed on single cell suspensions from mesenteric lymph nodes and thymus following staining with anti-CD3 antibody. Cells were washed, permeabilized, and fixed by treatment with BD Cytofix/Cytoperm (BD Pharmingen) and stained with anti-p24 antibody in BD Permwash solution (BD Pharmingen) following the manufacturer's instructions. Plasma HIV RNA concentrations were determined by Cobas Amplicor RT-PCR assay (Roche Diagnostics, Basel, Switzerland). Immunohistochemical stainings were performed as previously described (Baenziger et al., 2006). To assess nonspecific binding, tissue from untransplanted and uninfected transplanted mice was stained as controls.
Rag2^−/−γc^−/− mice on a BALB/c background (provided by M. Ito; Central Institute for Experimental Animals, Kawasaki, Japan) were bred and maintained under specific pathogen-free conditions in accordance with the guidelines of the animal facility at the Institute for Research in Biomedicine (Bellinzona) and the Swiss Federal Veterinary Office (Bern). Mouse experiments were reviewed and approved by the Veterinary Commission of the State of Ticino (Bellinzona, Switzerland). CL2 MBP (clodronate) was from Roche Diagnostics (Mannheim, Germany). Preparation of liposomes containing CL2 MBP was done as described previously (68). 6-10 week-old mice received 100 ul of clodronate liposomes intraperitoneally (i.p.) 24 hours prior to irradiation using a single sublethal dose of 4.0 Gray (Gy) from a Cesium 137 source (Biobeam 8000, STS GmbH, Braunschweig, Germany) at 3.75 Gy/min.

HIV-1NL4-3 [3] = experiment: HIV-1 challenge of CD4+ T cell cultures with <25% transduced cells; format: cell-based
Source text: These conditions would be more realistic of hT5Cyp therapy in patients. […] The survival advantage of CD4^+ T cell becomes apparent when analyzing the viability of the cells by forward versus side-scatter and gating on live lymphocytes; a method that had to be adopted since the cells were fixed in paraformaldehyde for flow cytometry analysis.

HIV-1 [4] = test system: HIV-1
Source text: The timing of HIV-1 infection was changed to allow for a stabilization of engraftment prior to assessment of viral replication.
HIV-1 down-regulates cell-surface expression of CD4 (Chen et al., 1996). […] Finally, tissue sections of thymi were directly examined for human T cells (using anti-CD3 antibody) and HIV-1 p24 antigen.
The MLNs are closest to the site of HIV-1 infection (i.p), while the PLNs are further away.
as §1
Rag2^−/−γc^−/− mice on a BALB/c background (provided by M. Ito; Central Institute for Experimental Animals, Kawasaki, Japan) were bred and maintained under specific pathogen-free conditions in accordance with the guidelines of the animal facility at the Institute for Research in Biomedicine (Bellinzona) and the Swiss Federal Veterinary Office (Bern). […] CD4^+ T cell engraftment and maintenance in mice was measured by flow cytometry. […]

Question: What does the source list for “hT5Cyp: human TRIM5α fused at serine 322 to human cyclophilin A, SEQ ID NO:12”?
Answer: HIV-1 restriction in further cell lines (HIV-1 [1]): restricted HIV-1; reduction in mean viral load vs hT5CypH126Q (HIV-1NL4-3 [2]; Example 4, n=5 and n=4): 22 fold; mean peripheral blood CD45^+ cells (HIV-1NL4-3 [2]; four weeks post-infection): 6.7%; percentage CD45^+ cells higher than hT5CypH126Q (HIV-1NL4-3 [2]; four weeks post-infection): 15 fold; Viral load (HIV-1NL4-3 [2]; individual mice, week 2, listed as wt): 103208 copies RNA/ml and 46007 copies RNA/ml and 43551 copies RNA/ml and 251320 copies RNA/ml and 66416 copies RNA/ml and 358800 copies RNA/ml and 566835 copies RNA/ml and 3811676 copies RNA/ml and 492800 copies RNA/ml and 27826 copies RNA/ml; Peripheral Blood (2 wks. postinfection) CD4 (HIV-1NL4-3 [2]; individual mice, listed as wt): 1 percentage of total nucleated cells and 0.44 percentage of total nucleated cells and 0.33 percentage of total nucleated cells and 1.56 percentage of total nucleated cells and 2.7 percentage of total nucleated cells and 7.7 percentage of total nucleated cells and 15.1 percentage of total nucleated cells and 28.3 percentage of total nucleated cells and 1.89 percentage of total nucleated cells and 1.1 percentage of total nucleated cells; Peripheral Blood (2 wks. postinfection) CD45 (HIV-1NL4-3 [2]; individual mice, listed as wt): 1.08 percentage of nucleated cells and 0.47 percentage of nucleated cells and 0.24 percentage of nucleated cells and 1.64 percentage of nucleated cells and 2.75 percentage of nucleated cells and 7.86 percentage of nucleated cells and 15.6 percentage of nucleated cells and 28.9 percentage of nucleated cells and 2.12 percentage of nucleated cells and 1.16 percentage of nucleated cells; Viral load (Corrected for CD4 count) (HIV-1NL4-3 [2]; individual mice, listed as wt): 101231 and 104916 and 192227 and 159325 and 24321 and 47206 and 37382 and 134446 and 260305 and 25410; mean peripheral blood CD4^+ cells (HIV-1NL4-3 [2]; two weeks post-infection): 6%; percentage CD4^+ cells higher than hT5CypH126Q (HIV-1NL4-3 [2]; two weeks post-infection): 34 fold; RT activity in the culture supernatant (HIV-1NL4-3 [3]; mixed culture): significantly lower; day of peak viral replication (HIV-1NL4-3 [3]; mixed culture): 28 days; transduced cells in the culture after HIV-1 infection (HIV-1NL4-3 [3]; start <25% transduced): 75%; p24^+ transduced human T cells (HIV-1 [4]; MLN or PLN, CCR5-tropic HIV-1): Few if any; mean viral load (HIV-1 [4]; n=8 per group): 1.6×10^5 (+/−1.1×10^5) copies viral RNA/ml plasma; down-regulation of cell surface CD4 (HIV-1 [4]; thymi and lymph nodes): prevented the down-regulation of cell surface CD4; p24^+ transduced human T cells (HIV-1 [4]; thymi or mesenteric lymph nodes): Few if any
